In ChEMBL document CHEMBL5055633, “Amphipathic Barbiturates as Mimics of Antimicrobial Peptides and the Marine Natural Products Eusynstyelamides with Activity against Multi-resistant Clinical Isolates” (J Med Chem, 2021):

How the values were obtained:
[1] = test system: HepG2; test: Cytotoxicity against human HepG2 cells assessed as reduction in cell viability incubated for 24 hrs by colorimetric tetrazolium assay; format: functional, cell-based; details: HepG2, 24 h
[2] = Hemolytic activity in human erythrocytes incubated for 1 hr by microplate reader; format: functional, cell-based; details: erythrocyte
[3] = test system: Pseudomonas aeruginosa; test: Antimicrobial activity against Pseudomonas aeruginosa PAO1 assessed as reduction in bacterial growth incubated for 48 hrs by microdilution susceptibility test; format: functional
[4] = test system: Escherichia coli; test: Antimicrobial activity against Escherichia coli ATCC 25922 assessed as reduction in bacterial growth incubated for 48 hrs by microdilution susceptibility test; format: functional
[5] = test system: Corynebacterium glutamicum; test: Antimicrobial activity against Corynebacterium glutamicum ATCC 13032 assessed as reduction in bacterial growth incubated for 48 hrs by microdilution susceptibility test; format: functional
[6] = test system: Staphylococcus aureus; test: Antimicrobial activity against Staphylococcus aureus ATCC 9144 assessed as reduction in bacterial growth incubated for 48 hrs by microdilution susceptibility test; format: functional
[7] = test system: MRC5; test: Cytotoxicity against human MRC5 cells assessed as reduction in cell viability incubated for 24 hrs by colorimetric tetrazolium assay; format: functional, cell-based; details: MRC5, 24 h
[8] = test system: Staphylococcus aureus; test: Antimicrobial activity against extended spectrum-lactamase-carbapenemas producing Staphylococcus aureus N315 assessed as reduction in bacterial growth incubated for 48 hrs by microdilution method; format: functional
[9] = test system: Staphylococcus aureus; test: Antimicrobial activity against extended spectrum-lactamase-carbapenemas producing Staphylococcus aureus NCTC 10442 assessed as reduction in bacterial growth incubated for 48 hrs by microdilution method; format: functional
[10] = test system: Staphylococcus aureus; test: Antimicrobial activity against extended spectrum-lactamase-carbapenemas producing Staphylococcus aureus strain 85/2082 assessed as reduction in bacterial growth incubated for 48 hrs by microdilution method; format: functional
[11] = test system: Staphylococcus aureus; test: Antimicrobial activity against extended spectrum-lactamase-carbapenemas producing Staphylococcus aureus strain WIS assessed as reduction in bacterial growth incubated for 48 hrs by microdilution method; format: functional
[12] = test system: Staphylococcus aureus; test: Antimicrobial activity against extended spectrum-lactamase-carbapenemas producing Staphylococcus aureus strain IHT 99040 assessed as reduction in bacterial growth incubated for 48 hrs by microdilution method; format: functional
[13] = test system: Enterococcus faecium; test: Antimicrobial activity against extended spectrum-lactamase-carbapenemas producing Enterococcus faecium strain 50673722 assessed as reduction in bacterial growth incubated for 48 hrs by microdilution method; format: functional
[14] = test system: Enterococcus faecium; test: Antimicrobial activity against extended spectrum-lactamase-carbapenemas producing Enterococcus faecium strain 50901530 assessed as reduction in bacterial growth incubated for 48 hrs by microdilution method; format: functional
[15] = test system: Enterococcus faecium; test: Antimicrobial activity against extended spectrum-lactamase-carbapenemas producing Enterococcus faecium strain K36-18 assessed as reduction in bacterial growth incubated for 48 hrs by microdilution method; format: functional
[16] = test system: Enterococcus faecium; test: Antimicrobial activity against extended spectrum-lactamase-carbapenemas producing Enterococcus faecium strain 50758899 assessed as reduction in bacterial growth incubated for 48 hrs by microdilution method; format: functional
[17] = test system: Enterococcus faecium; test: Antimicrobial activity against extended spectrum-lactamase-carbapenemas producing Enterococcus faecium strain TUH.50-22 assessed as reduction in bacterial growth incubated for 48 hrs by microdilution method; format: functional
[18] = test system: Escherichia coli; test: Antimicrobial activity against oxacillinase-producing Escherichia coli 50579417 assessed as reduction in bacterial growth incubated for 48 hrs by microdilution method; format: functional
[19] = test system: Escherichia coli; test: Antimicrobial activity against verona integron-encoded metallo-beta-lactamase-29-producing Escherichia coli 50639799 assessed as reduction in bacterial growth incubated for 48 hrs by microdilution method; format: functional
[20] = test system: Escherichia coli; test: Antimicrobial activity against New Delhi metallo-beta lactamase-1 producing Escherichia coli 50676002 assessed as reduction in bacterial growth incubated for 48 hrs by microdilution method; format: functional
[21] = test system: Escherichia coli; test: Antimicrobial activity against New Delhi metallo-beta lactamase-1 producing Escherichia coli 50739822 assessed as reduction in bacterial growth incubated for 48 hrs by microdilution method; format: functional
[22] = test system: Escherichia coli; test: Antimicrobial activity against imipenem-type carbapenemase-26 producing Escherichia coli 50857972 assessed as reduction in bacterial growth incubated for 48 hrs by microdilution method; format: functional
[23] = test system: Pseudomonas aeruginosa; test: Antimicrobial activity against verona integron-encoded metallo-beta-lactamase-2 producing Pseudomonas aeruginosa K34-7 assessed as reduction in bacterial growth incubated for 48 hrs by microdilution method; format: functional
[24] = test system: Pseudomonas aeruginosa; test: Antimicrobial activity against verona integron-encoded metallo-beta-lactamase-4 producing Pseudomonas aeruginosa K34-73 assessed as reduction in bacterial growth incubated for 48 hrs by microdilution method; format: functional
[25] = test system: Pseudomonas aeruginosa; test: Antimicrobial activity against imipenem-type carbapenemase-14 producing Pseudomonas aeruginosa K44-24 assessed as reduction in bacterial growth incubated for 48 hrs by microdilution method; format: functional
[26] = test system: Pseudomonas aeruginosa; test: Antimicrobial activity against New Delhi metallo-beta lactamase-1 producing Pseudomonas aeruginosa 50692172 assessed as reduction in bacterial growth incubated for 48 hrs by microdilution method; format: functional
[27] = test system: Pseudomonas aeruginosa; test: Antimicrobial activity against verona integron-encoded metallo-beta-lactamase producing Pseudomonas aeruginosa 50692520 assessed as reduction in bacterial growth incubated for 48 hrs by microdilution method; format: functional
[28] = Antimicrobial activity against carbapenemase producing Klebsiella pneumoniae K47-25 assessed as reduction in bacterial growth incubated for 48 hrs by microdilution method; format: functional
[29] = Antimicrobial activity against New Delhi metallo-beta lactamase-1 Klebsiella pneumoniae K66-45 assessed as reduction in bacterial growth incubated for 48 hrs by microdilution method; format: functional
[30] = Antimicrobial activity against New Delhi metallo-beta lactamase-1 and oxacillinase -181 producing Klebsiella pneumoniae 50531633 assessed as reduction in bacterial growth incubated for 48 hrs by microdilution method; format: functional
[31] = Antimicrobial activity against oxacillinase-245 producing Klebsiella pneumoniae 50625602 assessed as reduction in bacterial growth incubated for 48 hrs by microdilution method; format: functional
[32] = Antimicrobial activity against verona integron-encoded metallo-beta-lactamase -1 producing Klebsiella pneumoniae 50667959 assessed as reduction in bacterial growth incubated for 48 hrs by microdilution method; format: functional
[33] = test system: Acinetobacter baumannii; test: Antimicrobial activity against oxacillinase-58 producing Acinetobacter baumannii K12-21 assessed as reduction in bacterial growth incubated for 48 hrs by microdilution method; format: functional
[34] = test system: Acinetobacter baumannii; test: Antimicrobial activity against oxacillinase-23 producing Acinetobacter baumannii K44-35 assessed as reduction in bacterial growth incubated for 48 hrs by microdilution method; format: functional
[35] = test system: Acinetobacter baumannii; test: Antimicrobial activity against oxacillinase-23 producing Acinetobacter baumannii K47-42 assessed as reduction in bacterial growth incubated for 48 hrs by microdilution method; format: functional
[36] = test system: Acinetobacter baumannii; test: Antimicrobial activity against oxacillinase-24 producing Acinetobacter baumannii K55-13 assessed as reduction in bacterial growth incubated for 48 hrs by microdilution method; format: functional
[37] = test system: Acinetobacter baumannii; test: Antimicrobial activity against oxacillinase-23 producing Acinetobacter baumannii K63-58 assessed as reduction in bacterial growth incubated for 48 hrs by microdilution method; format: functional

NCCCCN1C(=O)N(CCCCN)C(=O)C(Cc2ccc(C(F)(F)F)cc2)(Cc2ccc(C(F)(F)F)cc2)C1=O.O=C(O)C(F)(F)F.O=C(O)C(F)(F)F
64 µg/mL: MIC [3] | MIC [6]
> 398 µg/mL: EC50 [2]
128 µg/mL: MIC [4]
16 µg/mL: IC50 [7]
40 µg/mL: IC50 [1]
4 µg/mL: MIC [5]
> 32 µg/mL: MIC [8] | MIC [9] | MIC [10] | MIC [11] | MIC [12] | MIC [13] | MIC [14] | MIC [15] | MIC [16] | MIC [17] | MIC [18] | MIC [19] | MIC [20] | MIC [21] | MIC [22] | MIC [23] | MIC [24] | MIC [25] | MIC [26] | MIC [27] | MIC [28] | MIC [29] | MIC [30] | MIC [31] | MIC [32] | MIC [33] | MIC [34] | MIC [35] | MIC [36] | MIC [37]

NCCCCN1C(=O)N(CCCCN)C(=O)C(Cc2ccc3ccccc3c2)(Cc2ccc3ccccc3c2)C1=O.O=C(O)C(F)(F)F.O=C(O)C(F)(F)F
7 µg/mL: IC50 [1]
16 µg/mL: MIC [3] | MIC [4] | MIC [13] | MIC [15] | MIC [16] | MIC [18] | MIC [19] | MIC [20] | MIC [21] | MIC [22] | MIC [37]
250 µg/mL: EC50 [2]
8 µg/mL: MIC [6] | MIC [8] | MIC [9] | MIC [10] | MIC [11] | MIC [12] | MIC [14] | MIC [17]
1 µg/mL: MIC [5]
> 32 µg/mL: MIC [25] | MIC [28] | MIC [29] | MIC [31] | MIC [32]
32 µg/mL: MIC [23] | MIC [24] | MIC [26] | MIC [27] | MIC [30] | MIC [33] | MIC [34] | MIC [35] | MIC [36]
2 µg/mL: IC50 [7]

NCCCCN1C(=O)N(CCCCN)C(=O)C(Cc2cc(C(F)(F)F)cc(C(F)(F)F)c2)(Cc2cc(C(F)(F)F)cc(C(F)(F)F)c2)C1=O.O=C(O)C(F)(F)F.O=C(O)C(F)(F)F
> 32 µg/mL: MIC [28]
8 µg/mL: MIC [13] | MIC [14] | MIC [17] | MIC [22]
4 µg/mL: MIC [5]
17 µg/mL: IC50 [7]
9 µg/mL: IC50 [1]
16 µg/mL: MIC [3] | MIC [4] | MIC [6] | MIC [8] | MIC [9] | MIC [10] | MIC [11] | MIC [12] | MIC [15] | MIC [16] | MIC [18] | MIC [19] | MIC [20] | MIC [21] | MIC [33]
32 µg/mL: MIC [23] | MIC [24] | MIC [25] | MIC [26] | MIC [27] | MIC [29] | MIC [30] | MIC [31] | MIC [32] | MIC [34] | MIC [35] | MIC [36] | MIC [37]
177 µg/mL: EC50 [2]

CN(C)[C@@H]1C(O)=C(C(N)=O)C(=O)[C@@]2(O)C(O)=C3C(=O)c4c(O)cccc4[C@@](C)(O)[C@H]3[C@H](O)[C@@H]12 [OXYTETRACYCLINE]
20 µg/mL: MIC [4]
2.5 µg/mL: MIC [5]
0.65 µg/mL: MIC [6]
